Assay results published in patent US6468472B1 (priority 1999, dated 2002).
Where two headings read alike, the source gives them in different places.

Experiments:
Bacillus subtilis spores = settings: cited from earlier work
[1] = test system: pathogenic microorganisms; settings: cited from earlier work; for minimum effective concentration for high-level disinfection: 20° C.
[2] = second-order dependence on peracetic acid concentration (Yuan et al.); cited from earlier work
[3] = Peracetic acid stability versus pH; assay type: physicochemical; settings: acetic acid buffer at pH 5.0-5.8

Structure (SMILES) | time for killing all Bacillus subtilis spores (Bacillus subtilis spores; pH 5) [h] | time for killing all Bacillus subtilis spores (Bacillus subtilis spores; pH 8) [h] | minimum effective concentration for high-level disinfection ([1]; 30 min, Sporox) [%] | pH of maximum decomposition rate [2] | time for killing all Bacillus subtilis spores (Bacillus subtilis spores; PAA at 0.013 m/l (0.10% w/v), pH 5.0) [h] | time for killing all Bacillus subtilis spores (Bacillus subtilis spores; PAA at 0.013 m/l (0.10% w/v), pH 8.0) [h] | reduction in sporicidal rate of kill activity between pH 8.0 and pH 5.0 (Bacillus subtilis spores; PAA at 0.13-0.38 m/l (0.99-2.89% w/v)) | decrease of sporicidal activity between pH 2.6 and pH 8.0 (factor) (Bacillus subtilis spores; work of Baldry) | increase in sporicidal kill time at pH 8.0 versus 5.0 (Bacillus subtilis spores; work of Baldry) [times] | increase in kill time at pH 2.6 versus pH 5.0 (Bacillus subtilis spores; work of Baldry, possible factor) [times] | minimum effective concentration for high-level disinfection ([1]; 25 min, Peract) [%] | minimum effective concentration for high level disinfection in a short time interval or sterilization over a longer soak period [1] [ppm] | amount which can be stably maintained [3]
OO [Formulation H2O2, hydrogen peroxide] | 3 | 6 | 6.0 | – | – | – | – | – | – | – | – | – | –
CC(=O)OO [PAA, peracetic acid] | – | – | – | 8.2 | 1 | > 6 | did not show a reduction | 3-10 times | 6 | 2 | 0.05 | 500 | less than 700 ppm
